According to patent publication US7297551B2, “Recombinant proteins and peptides for endotoxin biosensors, endotoxin removal, and anti-microbial and anti-endotoxin therapeutics” (priority 1998, dated 2007):

Tests used:
[1] = molecular target: T1, SSCrFCES (LPS-binding domain of C. rotundicauda Factor C, rFCES amino acids 29-330, numbered as in SEQ ID NO: 4) (Carcinoscorpius rotundicauda, UniProt Q26422); test: Surface plasmon resonance binding to immobilized lipid A; details: 400 ng/100 ul SSCrFCES
T1 construct: rFCES (amino acids 29-330); made in house; host or cells: Drosophila S2 cells
T1 sequence (Q26422 29-330): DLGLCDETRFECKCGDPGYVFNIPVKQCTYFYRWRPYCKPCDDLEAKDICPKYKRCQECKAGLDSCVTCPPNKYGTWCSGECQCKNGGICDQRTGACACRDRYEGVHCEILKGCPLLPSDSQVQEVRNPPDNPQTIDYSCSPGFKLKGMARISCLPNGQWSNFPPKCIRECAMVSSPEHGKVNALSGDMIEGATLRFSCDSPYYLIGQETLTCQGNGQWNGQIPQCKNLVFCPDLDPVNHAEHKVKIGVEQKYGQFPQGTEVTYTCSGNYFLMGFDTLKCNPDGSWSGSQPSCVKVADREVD
Procedure: Recognition of lipid A by the abovenamed secreted recombinant proteins and peptides was, performed with a BIAcore X™ biosensor instrument and an HPA sensor chip. Briefly, lipid A at 0.5 mg/ml in PBS was immobilized to a HPA sensor chip (Pharmacia) according to the manufacturer's specification. In all experiments, pyrogen-free PBS was used as the running buffer at a flow rate of 10 μl/min.
With purified SSCrFCES, 4 μg/ml was injected into the flow cell at a rate of 10 μl/min, and the binding response was measured as a function of time. Following injection of SSCrFCES, a solution of INDIA™ HisProbe™-HRP antibody, diluted in PBS to 400 μg/ml, was also injected to cause a shift in SPR in order to further confirm that SSCrFCES binds to lipid A. For regeneration, 100 mM of NaOH solution was injected for 5 minutes. Similar lipid A binding analysis was carried out with SSCrFCsushi-GFP fusion proteins.

[2] = molecular target: T2, rFCEE (truncated C. rotundicauda Factor C, CrFC21EE, amino acids 1-766, from P. pastoris) (Carcinoscorpius rotundicauda, UniProt Q26422); test: Modified Western blot of LPS/lipid A; assay type: binding; details: compared with rFC
T2 construct: Pichia pastoris, Biomax-50 enriched
T2 sequence (Q26422 1-766): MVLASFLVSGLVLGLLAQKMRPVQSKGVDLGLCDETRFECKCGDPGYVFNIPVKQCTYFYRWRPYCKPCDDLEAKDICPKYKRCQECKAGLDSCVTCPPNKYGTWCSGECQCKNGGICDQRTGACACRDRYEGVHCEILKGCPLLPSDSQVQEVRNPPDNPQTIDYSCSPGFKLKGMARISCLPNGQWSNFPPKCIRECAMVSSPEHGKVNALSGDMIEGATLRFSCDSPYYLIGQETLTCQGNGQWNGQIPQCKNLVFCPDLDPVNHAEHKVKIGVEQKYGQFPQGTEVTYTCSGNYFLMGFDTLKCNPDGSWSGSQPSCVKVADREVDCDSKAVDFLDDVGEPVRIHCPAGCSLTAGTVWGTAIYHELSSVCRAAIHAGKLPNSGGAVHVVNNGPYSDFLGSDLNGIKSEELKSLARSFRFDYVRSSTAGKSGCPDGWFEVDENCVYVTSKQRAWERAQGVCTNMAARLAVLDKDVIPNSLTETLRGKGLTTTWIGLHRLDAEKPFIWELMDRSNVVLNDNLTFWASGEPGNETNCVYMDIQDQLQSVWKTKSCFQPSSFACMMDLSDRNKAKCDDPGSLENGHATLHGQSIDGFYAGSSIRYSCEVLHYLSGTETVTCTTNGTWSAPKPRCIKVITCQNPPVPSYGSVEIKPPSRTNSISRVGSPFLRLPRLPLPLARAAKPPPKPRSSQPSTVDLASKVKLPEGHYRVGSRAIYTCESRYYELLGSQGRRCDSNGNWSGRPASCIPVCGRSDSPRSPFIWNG
Procedure: LPS from E. coli 055:B5 (Sigma) was reconstituted to 2 μg/μl, and diphosphoryl lipid A from E. coli K12, D31m4 LPS (List Biologicals, Inc., USA) was made up to 1 μg/μl. The LPS-binding assay was based on modifications of earlier described protocols (45,61). Briefly, 10 μg aliquots of LPS/lipid A were electrophoresed on a denaturing 15% SDS-polyacrylamide gel and electroblotted onto Immobilon™ PVDF membrane. The membrane was cut into strips and each LPS/lipid A strip was subsequently incubated with 300 μg of proteins containing rFC. Detection of rFC binding to lipid A was accomplished by incubation with anti-Factor C antibody followed by alkaline phosphatase-conjugated secondary goat anti-rabbit antibody (Dako) and BCIP/NBT colorimetric substrate (Moss, Inc., USA).

BPI pep85-99 (15 mer) = details: de Haas et al., 1998; ligand cell empty; read-out: Equilibrium constant; cited from earlier work
NH-LBP (aa 1-197) = details: Han et al., 1994; ligand cell empty; read-out: Equilibrium constant; cited from earlier work
[3] = molecular target: T1, SSCrFCES (LPS-binding domain of C. rotundicauda Factor C, rFCES amino acids 29-330, numbered as in SEQ ID NO: 4); details: rFCES produced in Drosophila cells, 8 ng/μl; reference 77; cited from earlier work

## lipid A
[1]
  saturation of lipid A: 92%
[2]
  binding to lipid A moiety of LPS: less strongly
BPI pep85-99 (15 mer)
  Kd: 1760 nM
NH-LBP (aa 1-197)
  Kd: 51 nM
[3]
  saturation of immobilized lipid A: 92%
